The target in assay [1] is Sodium channel protein type 9 subunit alpha (Homo sapiens) (UniProt Q15858). Kind of assay: Inhibition of Nav1.7 (unknown origin) expressed in HEK293 cells by automated patch clamp assay. Type of assay: cell-based.
The target of assay [2] is Sodium channel protein type 11 subunit alpha (Homo sapiens) (UniProt Q9UI33). Put plainly: Inhibition of Nav1.9 (unknown origin) expressed in HEK293 cells by automated patch clamp assay. The class given is cell-based.

Where only a bound is given, the exact number is not on record here.

Chain of Sodium channel protein type 9 subunit alpha (Homo sapiens) (Q15858 whole entry, looked up): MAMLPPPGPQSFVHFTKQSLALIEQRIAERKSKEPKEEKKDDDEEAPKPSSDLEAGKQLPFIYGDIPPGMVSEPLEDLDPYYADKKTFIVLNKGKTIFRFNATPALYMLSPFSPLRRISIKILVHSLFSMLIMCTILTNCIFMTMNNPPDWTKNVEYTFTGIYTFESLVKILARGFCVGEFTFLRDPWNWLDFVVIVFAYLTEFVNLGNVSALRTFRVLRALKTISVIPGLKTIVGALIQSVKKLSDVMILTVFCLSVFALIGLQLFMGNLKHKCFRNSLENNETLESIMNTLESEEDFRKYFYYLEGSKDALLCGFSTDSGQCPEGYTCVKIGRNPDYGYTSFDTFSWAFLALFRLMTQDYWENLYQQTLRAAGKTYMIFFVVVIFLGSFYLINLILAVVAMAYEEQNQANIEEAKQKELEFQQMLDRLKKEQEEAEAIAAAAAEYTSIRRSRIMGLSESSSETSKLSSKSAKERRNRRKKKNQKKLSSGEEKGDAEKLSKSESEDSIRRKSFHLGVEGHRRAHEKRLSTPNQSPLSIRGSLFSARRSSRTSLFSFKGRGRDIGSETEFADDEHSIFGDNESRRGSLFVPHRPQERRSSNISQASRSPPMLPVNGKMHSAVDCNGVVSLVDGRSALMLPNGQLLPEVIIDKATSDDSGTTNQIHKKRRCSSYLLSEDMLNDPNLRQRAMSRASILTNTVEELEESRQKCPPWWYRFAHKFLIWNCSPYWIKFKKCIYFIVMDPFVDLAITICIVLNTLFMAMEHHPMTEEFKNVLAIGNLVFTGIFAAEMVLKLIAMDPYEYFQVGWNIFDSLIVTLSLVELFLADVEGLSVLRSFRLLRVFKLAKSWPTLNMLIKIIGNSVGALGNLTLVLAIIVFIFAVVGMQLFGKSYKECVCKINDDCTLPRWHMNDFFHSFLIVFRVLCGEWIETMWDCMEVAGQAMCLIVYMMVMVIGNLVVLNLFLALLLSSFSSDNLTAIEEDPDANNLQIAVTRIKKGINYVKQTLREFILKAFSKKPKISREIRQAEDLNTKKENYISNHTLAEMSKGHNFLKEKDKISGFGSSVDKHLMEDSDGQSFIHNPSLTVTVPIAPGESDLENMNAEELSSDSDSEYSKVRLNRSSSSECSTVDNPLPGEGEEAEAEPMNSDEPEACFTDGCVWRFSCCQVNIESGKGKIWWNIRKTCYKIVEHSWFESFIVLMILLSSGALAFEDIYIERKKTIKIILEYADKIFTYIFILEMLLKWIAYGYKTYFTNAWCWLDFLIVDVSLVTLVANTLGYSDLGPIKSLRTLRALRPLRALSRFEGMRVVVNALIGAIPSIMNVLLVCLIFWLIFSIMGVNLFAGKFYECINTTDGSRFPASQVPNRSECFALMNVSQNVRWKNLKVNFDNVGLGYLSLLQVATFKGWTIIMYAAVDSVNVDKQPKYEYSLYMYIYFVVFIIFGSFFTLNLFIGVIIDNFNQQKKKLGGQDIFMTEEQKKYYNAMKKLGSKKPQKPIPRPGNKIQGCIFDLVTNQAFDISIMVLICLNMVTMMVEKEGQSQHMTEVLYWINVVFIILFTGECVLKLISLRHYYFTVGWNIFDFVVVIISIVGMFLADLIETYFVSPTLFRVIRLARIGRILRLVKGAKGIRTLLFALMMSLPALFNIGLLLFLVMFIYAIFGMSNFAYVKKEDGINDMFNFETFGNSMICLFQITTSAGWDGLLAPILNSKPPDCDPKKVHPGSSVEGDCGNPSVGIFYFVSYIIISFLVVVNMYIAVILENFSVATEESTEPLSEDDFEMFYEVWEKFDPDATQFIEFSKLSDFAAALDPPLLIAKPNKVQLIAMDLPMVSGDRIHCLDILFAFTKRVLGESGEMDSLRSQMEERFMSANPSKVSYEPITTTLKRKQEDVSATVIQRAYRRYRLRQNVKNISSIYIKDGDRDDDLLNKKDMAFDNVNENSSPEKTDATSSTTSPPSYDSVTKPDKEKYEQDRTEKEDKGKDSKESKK
Chain of Sodium channel protein type 11 subunit alpha (Homo sapiens) (Q9UI33 whole entry): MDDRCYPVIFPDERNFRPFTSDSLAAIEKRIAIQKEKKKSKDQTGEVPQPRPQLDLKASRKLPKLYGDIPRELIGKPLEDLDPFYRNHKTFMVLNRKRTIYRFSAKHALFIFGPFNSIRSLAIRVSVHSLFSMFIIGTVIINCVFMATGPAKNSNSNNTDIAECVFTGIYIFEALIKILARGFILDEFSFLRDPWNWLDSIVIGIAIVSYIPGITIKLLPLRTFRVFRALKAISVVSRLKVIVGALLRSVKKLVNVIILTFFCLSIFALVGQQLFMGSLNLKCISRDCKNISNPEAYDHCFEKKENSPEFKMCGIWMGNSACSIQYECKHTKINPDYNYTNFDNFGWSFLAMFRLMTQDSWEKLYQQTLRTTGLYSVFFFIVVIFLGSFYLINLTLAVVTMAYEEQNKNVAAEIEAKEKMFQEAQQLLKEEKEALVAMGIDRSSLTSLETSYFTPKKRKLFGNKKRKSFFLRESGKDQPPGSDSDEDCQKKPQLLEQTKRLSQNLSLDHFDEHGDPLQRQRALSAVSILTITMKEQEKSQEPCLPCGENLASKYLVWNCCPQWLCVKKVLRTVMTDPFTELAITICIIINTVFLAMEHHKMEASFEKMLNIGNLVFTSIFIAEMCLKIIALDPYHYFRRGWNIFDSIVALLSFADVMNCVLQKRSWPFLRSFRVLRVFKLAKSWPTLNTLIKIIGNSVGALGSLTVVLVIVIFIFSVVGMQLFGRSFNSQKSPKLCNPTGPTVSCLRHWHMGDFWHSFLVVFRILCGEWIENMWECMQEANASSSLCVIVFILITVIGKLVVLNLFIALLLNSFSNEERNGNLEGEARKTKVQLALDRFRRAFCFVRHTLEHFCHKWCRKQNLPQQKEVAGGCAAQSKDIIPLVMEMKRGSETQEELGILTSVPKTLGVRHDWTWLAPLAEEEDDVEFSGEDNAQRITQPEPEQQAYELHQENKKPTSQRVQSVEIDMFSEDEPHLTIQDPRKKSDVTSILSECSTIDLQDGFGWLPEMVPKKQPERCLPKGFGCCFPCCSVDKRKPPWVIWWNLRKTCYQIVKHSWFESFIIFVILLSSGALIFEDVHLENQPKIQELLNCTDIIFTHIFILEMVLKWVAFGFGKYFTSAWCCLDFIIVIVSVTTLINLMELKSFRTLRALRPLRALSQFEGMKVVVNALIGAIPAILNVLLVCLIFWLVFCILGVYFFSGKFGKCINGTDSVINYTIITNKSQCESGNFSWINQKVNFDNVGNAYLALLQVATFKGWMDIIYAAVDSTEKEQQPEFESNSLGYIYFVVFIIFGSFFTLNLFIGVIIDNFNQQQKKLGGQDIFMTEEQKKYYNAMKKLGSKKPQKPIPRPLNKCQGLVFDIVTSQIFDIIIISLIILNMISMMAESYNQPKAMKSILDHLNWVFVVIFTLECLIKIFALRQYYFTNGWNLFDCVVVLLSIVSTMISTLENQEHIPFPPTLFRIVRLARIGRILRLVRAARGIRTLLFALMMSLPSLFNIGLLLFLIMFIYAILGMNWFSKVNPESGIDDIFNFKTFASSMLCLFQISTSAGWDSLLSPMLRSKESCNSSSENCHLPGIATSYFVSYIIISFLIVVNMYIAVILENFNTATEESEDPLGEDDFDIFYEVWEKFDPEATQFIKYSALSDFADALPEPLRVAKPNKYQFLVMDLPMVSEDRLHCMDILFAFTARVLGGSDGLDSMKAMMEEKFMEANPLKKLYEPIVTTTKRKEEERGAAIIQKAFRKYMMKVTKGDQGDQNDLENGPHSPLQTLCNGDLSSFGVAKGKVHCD

On to `Cn1cc(-c2ccc(C(F)(F)F)cc2-c2ccncc2)c2ccc(S(=O)(=O)Nc3ncns3)cc21`, for which the INH was 0.05 µM in assay [1] and greater than 10 µM in assay [2].

As to `Cn1cc(-c2cccc3c2CCNC3)c2ccc(S(=O)(=O)Nc3ncns3)cc21`, the values for the INH in assay [1] and in assay [2] were 0.292 µM and greater than 10 µM, respectively.

Take `Cn1cc(-c2cccc3ccccc23)c2ccc(S(=O)(=O)Nc3ncns3)cc21`: the INH was 0.306 µM in assay [1] and greater than 10 µM in assay [2].

On to `Cn1cc(-c2ccc(C(F)(F)F)cc2C2=CCNCC2)c2ccc(S(=O)(=O)Nc3ncns3)cc21`, for which the INH was 0.0425 µM in assay [1] and greater than 10 µM in assay [2].

As to `Cn1nccc1-c1cc(Cl)ccc1-c1cn(C)c2cc(S(=O)(=O)Nc3ncns3)ccc12`, the INH in assay [1] is 0.253 µM; in assay [2], greater than 10 µM.

With `CC(=O)n1cc(-c2ccc(C(F)(F)F)cc2-c2ccnn2C)c2ccc(S(=O)(=O)Nc3ncns3)cc21`, the INH in assay [1] was 0.0505 µM; in assay [2] it was greater than 10 µM.

Take `Cn1cc(-c2ccc(C(F)(F)F)cc2-c2ccnn2C2CNC2)c2ccc(S(=O)(=O)Nc3ncns3)cc21`: the figures for the INH in assay [1] and in assay [2] were 0.263 µM and greater than 10 µM, respectively.

On to `Cn1nccc1-c1cc(C(F)(F)F)ccc1-c1cn(C)c2cc(S(=O)(=O)Nc3ncns3)ccc12`, for which the INH in assay [1] is 0.147 µM; in assay [2], greater than 10 µM.

Regarding `Cn1cc(-c2ccc(C(F)(F)F)cc2-c2ccn[nH]2)c2ccc(S(=O)(=O)Nc3ncns3)cc21`, the INH in assay [1] was 0.0375 µM; in assay [2] it was greater than 10 µM.

Values taken from ChEMBL document CHEMBL2406968, “Heteroaryl sodium channel inhibitors” (ACS Med Chem Lett, 2013).
